# Results: PubChem BioAssay (NCI)
#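 Exposure lasted 48 hours, with cells grown in 96-well plates and compounds tested at five concentrations. Here, GI50 denotes the concentration required for 50% inhibition of growth. At the TGI there is no net growth.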
# Legend:
# Assay in all cases: DTP human tumour cell line panel, 48 h
# UACC-257 melanoma = test system: UACC-257 melanoma
# COLO 205 colon = test system: COLO 205 colon
# CCRF-CEM leukemia = test system: CCRF-CEM leukemia
# T-47D breast = test system: T-47D breast
# OVCAR-5 ovarian = test system: OVCAR-5 ovarian
# IGROV1 ovarian = test system: IGROV1 ovarian
# HCC-2998 colon = test system: HCC-2998 colon
# A498 renal = test system: A498 renal
# NCI-H226 lung = test system: NCI-H226 lung
# SNB-75 CNS = test system: SNB-75 CNS
# SF-268 CNS = test system: SF-268 CNS
# MDA-MB-435 = test system: MDA-MB-435
# SK-MEL-2 melanoma = test system: SK-MEL-2 melanoma
# UACC-62 melanoma = test system: UACC-62 melanoma
# OVCAR-3 ovarian = test system: OVCAR-3 ovarian
# NCI-H522 lung = test system: NCI-H522 lung
# LOX IMVI melanoma = test system: LOX IMVI melanoma
# NCI-H460 lung = test system: NCI-H460 lung
# KM12 colon = test system: KM12 colon
# HOP-92 NSCLC = test system: HOP-92 NSCLC
# SW-620 colon = test system: SW-620 colon
# UO-31 renal = test system: UO-31 renal
# PC-3 prostate = test system: PC-3 prostate
# M14 melanoma = test system: M14 melanoma
# HOP-62 NSCLC = test system: HOP-62 NSCLC
# MDA-MB-231 breast = test system: MDA-MB-231 breast
# U251 CNS = test system: U251 CNS
# TK-10 renal = test system: TK-10 renal
# SF-539 CNS = test system: SF-539 CNS
# ACHN renal = test system: ACHN renal
# MOLT-4 leukemia = test system: MOLT-4 leukemia
# EKVX NSCLC = test system: EKVX NSCLC
# SK-OV-3 ovarian = test system: SK-OV-3 ovarian
# RXF 393 renal = test system: RXF 393 renal
# SK-MEL-5 melanoma = test system: SK-MEL-5 melanoma
# NCI-H23 lung = test system: NCI-H23 lung
# SF-295 CNS = test system: SF-295 CNS
# HCT-15 colon = test system: HCT-15 colon
# HS 578T breast = test system: HS 578T breast
# A549 NSCLC = test system: A549 NSCLC
# MCF7 breast = test system: MCF7 breast
# SK-MEL-28 melanoma = test system: SK-MEL-28 melanoma
# HL-60(TB) leukemia = test system: HL-60(TB) leukemia
# HCT-116 colon = test system: HCT-116 colon
# MALME-3M melanoma = test system: MALME-3M melanoma
# CAKI-1 renal = test system: CAKI-1 renal
# K-562 leukemia = test system: K-562 leukemia
# SNB-19 CNS = test system: SNB-19 CNS
# HT29 colon = test system: HT29 colon
# OVCAR-4 ovarian = test system: OVCAR-4 ovarian
# DU-145 prostate = test system: DU-145 prostate
# OVCAR-8 ovarian = test system: OVCAR-8 ovarian
# BT-549 breast = test system: BT-549 breast
# SN12C renal = test system: SN12C renal
# RPMI-8226 leukemia = test system: RPMI-8226 leukemia
compound,measurement,setting,value
NCCOc1ncccc1/C=C1\C2C=CC=CC2C2C=CC(F)=CC12 (stereo not given),GI50,UACC-257 melanoma,1760 nM
same,TGI,UACC-257 melanoma,3860 nM
same,GI50,COLO 205 colon,1110 nM
same,TGI,COLO 205 colon,2630 nM
same,GI50,CCRF-CEM leukemia,260 nM
same,TGI,CCRF-CEM leukemia,5080 nM
same,GI50,T-47D breast,2070 nM
same,TGI,T-47D breast,6150 nM
same,GI50,OVCAR-5 ovarian,1690 nM
same,TGI,OVCAR-5 ovarian,3400 nM
same,GI50,IGROV1 ovarian,1160 nM
same,TGI,IGROV1 ovarian,2470 nM
same,GI50,HCC-2998 colon,1250 nM
same,TGI,HCC-2998 colon,2570 nM
same,GI50,A498 renal,1530 nM
same,TGI,A498 renal,3490 nM
same,GI50,NCI-H226 lung,1020 nM
same,TGI,NCI-H226 lung,2470 nM
same,GI50,SNB-75 CNS,1500 nM
same,TGI,SNB-75 CNS,5670 nM
same,GI50,SF-268 CNS,1410 nM
same,TGI,SF-268 CNS,11000 nM
same,GI50,MDA-MB-435,1810 nM
same,TGI,MDA-MB-435,3350 nM
same,GI50,SK-MEL-2 melanoma,2030 nM
same,TGI,SK-MEL-2 melanoma,4360 nM
same,GI50,UACC-62 melanoma,1360 nM
same,TGI,UACC-62 melanoma,2880 nM
same,GI50,OVCAR-3 ovarian,1450 nM
same,TGI,OVCAR-3 ovarian,2770 nM
same,GI50,NCI-H522 lung,1690 nM
same,TGI,NCI-H522 lung,4090 nM
same,GI50,LOX IMVI melanoma,583 nM
same,TGI,LOX IMVI melanoma,1960 nM
same,GI50,NCI-H460 lung,283 nM
same,TGI,NCI-H460 lung,1460 nM
same,GI50,KM12 colon,1470 nM
same,TGI,KM12 colon,2970 nM
same,GI50,HOP-92 NSCLC,258 nM
same,TGI,HOP-92 NSCLC,2190 nM
same,GI50,SW-620 colon,1070 nM
same,TGI,SW-620 colon,2660 nM
same,GI50,UO-31 renal,1310 nM
same,TGI,UO-31 renal,3060 nM
same,GI50,PC-3 prostate,1150 nM
same,TGI,PC-3 prostate,2450 nM
same,GI50,M14 melanoma,1350 nM
same,TGI,M14 melanoma,3050 nM
same,GI50,HOP-62 NSCLC,1060 nM
same,TGI,HOP-62 NSCLC,2680 nM
same,GI50,MDA-MB-231 breast,1640 nM
same,TGI,MDA-MB-231 breast,3260 nM
same,GI50,U251 CNS,622 nM
same,TGI,U251 CNS,2060 nM
same,GI50,TK-10 renal,1960 nM
same,TGI,TK-10 renal,4310 nM
same,GI50,SF-539 CNS,1310 nM
same,TGI,SF-539 CNS,2610 nM
same,GI50,ACHN renal,347 nM
same,TGI,ACHN renal,1400 nM
same,GI50,MOLT-4 leukemia,232 nM
same,TGI,MOLT-4 leukemia,1100 nM
same,GI50,EKVX NSCLC,1200 nM
same,TGI,EKVX NSCLC,3050 nM
same,GI50,SK-OV-3 ovarian,735 nM
same,TGI,SK-OV-3 ovarian,2330 nM
same,GI50,RXF 393 renal,1570 nM
same,TGI,RXF 393 renal,3170 nM
same,GI50,SK-MEL-5 melanoma,1470 nM
same,TGI,SK-MEL-5 melanoma,2790 nM
same,GI50,NCI-H23 lung,666 nM
same,TGI,NCI-H23 lung,3010 nM
same,GI50,SF-295 CNS,467 nM
same,TGI,SF-295 CNS,1810 nM
same,GI50,HCT-15 colon,757 nM
same,TGI,HCT-15 colon,2280 nM
same,GI50,HS 578T breast,2550 nM
same,TGI,HS 578T breast,13100 nM
same,GI50,A549 NSCLC,268 nM
same,TGI,A549 NSCLC,2040 nM
same,GI50,MCF7 breast,394 nM
same,TGI,MCF7 breast,1730 nM
same,GI50,SK-MEL-28 melanoma,1510 nM
same,TGI,SK-MEL-28 melanoma,2900 nM
same,GI50,HL-60(TB) leukemia,334 nM
same,TGI,HL-60(TB) leukemia,1420 nM
same,GI50,HCT-116 colon,1130 nM
same,TGI,HCT-116 colon,2600 nM
same,GI50,MALME-3M melanoma,1420 nM
same,TGI,MALME-3M melanoma,3170 nM
same,GI50,CAKI-1 renal,429 nM
same,TGI,CAKI-1 renal,1870 nM
same,GI50,K-562 leukemia,1010 nM
same,TGI,K-562 leukemia,3130 nM
same,GI50,SNB-19 CNS,816 nM
same,TGI,SNB-19 CNS,14100 nM
same,GI50,HT29 colon,1450 nM
same,TGI,HT29 colon,3290 nM
same,GI50,OVCAR-4 ovarian,2700 nM
same,TGI,OVCAR-4 ovarian,10100 nM
same,GI50,DU-145 prostate,531 nM
same,TGI,DU-145 prostate,1990 nM
same,GI50,OVCAR-8 ovarian,1190 nM
same,TGI,OVCAR-8 ovarian,3480 nM
same,GI50,BT-549 breast,2640 nM
same,TGI,BT-549 breast,10800 nM
same,GI50,SN12C renal,333 nM
same,TGI,SN12C renal,1350 nM
same,GI50,RPMI-8226 leukemia,1580 nM
same,TGI,RPMI-8226 leukemia,3850 nM
